Laboratory results reported in ChEMBL document CHEMBL3872207, “Aromatic heterocyclic esters of podophyllotoxin exert anti-MDR activity in human leukemia K562/ADR cells via ROS/MAPK signaling pathways” (Eur J Med Chem, 2016).
Calls of active or inactive are those of the source. The calls are words filed in the database; no cut-off is given here.

Experiments:
K562/Adr [1] = assay: Induction of apoptosis in human K562/ADR cells assessed as ratio of cleaved caspase-8 to beta-actin level at 0.1 uM pretreated with MAPK inhibitor SP600125 for 1 hr followed by compound addition measured after 48 hrs by Western blot analysis (reference value: 0.07); assay type: functional
K562/Adr [2] = assay: Induction of ERK1/2 phosphorylation in human K562/ADR cells assessed as ratio of phosphorylated ERK1/2 to beta-actin level at 0.1 uM measured after 48 hrs by Western blotting (reference value: 0.22); assay type: cell-based
K562/Adr [3] = assay: Induction of apoptosis in human K562/ADR cells assessed as ratio of cleaved caspase-3 to beta-actin level at 0.1 uM pretreated with MAPK inhibitor SB203580 for 1 hr followed by compound addition measured after 48 hrs by Western blot analysis (reference value: 0.06); assay type: functional
[4] = Downregulation of CDK1 expression in human K562/ADR cells assessed as ratio of CDK1 to beta-actin level at 0.1 uM pretreated with MAPK inhibitor U0126 for 1 hr followed by compound addition measured after 48 hrs by Western blot analysis (reference value: 0.53); assay type: functional, cell-based
K562/Adr [5] = assay: Induction of apoptosis in human K562/ADR cells assessed as ratio of cleaved caspase-8 to beta-actin level at 0.1 uM pretreated with MAPK inhibitor SB203580 for 1 hr followed by compound addition measured after 48 hrs by Western blot analysis (reference value: 0.07); assay type: functional
K562/Adr [6] = assay: Induction of apoptosis in human K562/ADR cells assessed as ratio of cleaved caspase-9 to beta-actin level at 0.1 uM measured after 48 hrs by Western blot analysis (reference value: 0.05); assay type: functional
K562/Adr [7] = assay: Induction of ERK1/2 phosphorylation in human K562/ADR cells assessed as ratio of phosphorylated ERK1/2 to beta-actin level at 0.1 uM pretreated with MAPK inhibitor SB203580 for 1 hr followed by compound addition after 48 hrs by Western blotting method (reference value: 0.22); assay type: cell-based
K562/Adr [8] = assay: Induction of apoptosis in human K562/ADR cells assessed as viable cells at 0.1 uM pretreated with MAPK inhibitor SB203580 for 1 hr followed by compound addition after 48 hrs by Annexin V-APC/7-AAD staining based flow cytometry (reference value: 95.31%); assay type: functional; settings: read-out: Activity
K562/Adr [9] = assay: Induction of intracellular ROS accumulation in human K562/ADR cells assessed as fluorescence intensity at 0.1 uM measured after 24 hrs by DCFH-DA probe based flow cytometry relative to vehicle-treated control; assay type: functional
K562/Adr [10] = assay: Induction of apoptosis in human K562/ADR cells assessed as chromatin condensation at 0.1 uM measured after 24 hrs by Hoechst33342 staining-based inverted fluorescent microscopic analysis; assay type: functional, cell-based
[11] = molecular target: T1, c-Jun N-terminal kinase, JNK (Homo sapiens) (UniProt P45983+P53779+P45984); assay: Induction of JNK phosphorylation in human K562/ADR cells assessed as ratio of phosphorylated JNK to beta-actin level at 0.1 uM pretreated with MAPK inhibitor SB203580 for 1 hr followed by compound addition after 48 hrs by Western blotting method (reference value: 0.46); assay type: cell-based
[12] = Downregulation of CyclinB1 expression in human K562/ADR cells assessed as ratio of CyclinB1 to beta-actin level at 0.1 uM pretreated with MAPK inhibitor SP600125 for 1 hr followed by compound addition measured after 48 hrs by Western blot analysis (reference value: 0.77); assay type: functional, cell-based
K562/Adr [13] = assay: Induction of apoptosis in human K562/ADR cells assessed as ratio of cleaved caspase-9 to beta-actin level at 0.1 uM pretreated with ROS scavenger NAC for 2 hrs followed by compound addition measured after 48 hrs by Western blot analysis (reference value: 0.05); assay type: functional
[14] = Downregulation of CyclinA expression in human K562/ADR cells assessed as ratio of CyclinA to beta-actin level at 0.1 uM measured after 48 hrs by Western blot analysis (reference value: 0.64); assay type: functional, cell-based
K562/Adr [15] = assay: Induction of ROS generation in human K562/ADR cells at 0.1 uM measured after 24 hrs by DCFH-DA probe based inverted fluorescence microscopy; assay type: functional, cell-based
[16] = Downregulation of P-gp expression in human K562/ADR cells assessed as ratio of P-gp to beta-actin level at 0.1 uM measured after 48 hrs by Western blot analysis (reference value: 0.63); assay type: functional, cell-based
[17] = Downregulation of CyclinB1 expression in human K562/ADR cells assessed as ratio of CyclinB1 to beta-actin level at 0.1 uM pretreated with MAPK inhibitor SB203580 for 1 hr followed by compound addition measured after 48 hrs by Western blot analysis (reference value: 0.77); assay type: functional, cell-based
[18] = Antiproliferative activity against human K562 cells measured after 72 hrs by CCK8 assay; assay type: functional, cell-based; settings: K562, 72 h
K562/Adr [19] = assay: Induction of apoptosis in human K562/ADR cells assessed as ratio of cleaved PARP to beta-actin level at 0.1 uM pretreated with ROS scavenger NAC for 2 hrs followed by compound addition measured after 48 hrs by Western blot analysis (reference value: 0.04); assay type: functional
[20] = Downregulation of CDK1 expression in human K562/ADR cells assessed as ratio of CDK1 to beta-actin level at 0.1 uM measured after 48 hrs by Western blot analysis (reference value: 0.53); assay type: functional, cell-based
K562/Adr [21] = assay: Induction of apoptosis in human K562/ADR cells assessed as ratio of cleaved caspase-8 to beta-actin level at 0.1 uM pretreated with MAPK inhibitor U0126 for 1 hr followed by compound addition measured after 48 hrs by Western blot analysis (reference value: 0.07); assay type: functional
[22] = Downregulation of CyclinA expression in human K562/ADR cells assessed as ratio of CyclinA to beta-actin level at 0.1 uM pretreated with ROS scavenger NAC for 2 hrs followed by compound addition measured after 48 hrs by Western blot analysis (reference value: 0.64); assay type: functional, cell-based
K562/Adr [23] = assay: Induction of apoptosis in human K562/ADR cells assessed as late apoptotic cells at 0.1 uM pretreated with MAPK inhibitor U0126 for 1 hr followed by compound addition after 48 hrs by Annexin V-APC/7-AAD staining based flow cytometry (reference value: 1.69%); assay type: functional; set-up: scale not given: the % may be the effect or the level left
[24] = molecular target: T1, c-Jun N-terminal kinase, JNK (Homo sapiens); assay: Induction of JNK phosphorylation in human K562/ADR cells assessed as ratio of phosphorylated JNK to beta-actin level at 0.1 uM pretreated with MAPK inhibitor U0126 for 1 hr followed by compound addition after 48 hrs by Western blotting method (reference value: 0.46); assay type: cell-based
K562/Adr [25] = assay: Induction of apoptosis in human K562/ADR cells assessed as ratio of cleaved caspase-8 to beta-actin level at 0.1 uM measured after 48 hrs by Western blot analysis (reference value: 0.07); assay type: functional
[26] = molecular target: MAP kinase p38 (Homo sapiens) (UniProt O15264+Q15759+Q16539+P53778); assay: Induction of P38 phosphorylation in human K562/ADR cells assessed as ratio of phosphorylated p38 to beta-actin level at 0.1 uM pretreated with MAPK inhibitor SB203580 for 1 hr followed by compound addition after 48 hrs by Western blotting method (reference value: 0.25); assay type: cell-based

In the case of COc1cc([C@@H]2c3cc4c(cc3[C@H](OC(=O)c3ccco3)[C@H]3COC(=O)[C@H]23)OCO4)cc(OC)c1OC, the Ratio (K562/Adr [1]) is reported as 0.47, the Ratio (K562/Adr [2]) is reported as 0.33 and the Ratio (K562/Adr [3]) is reported as 0.52. It also gave a Ratio [4] of 0.26, a Ratio (K562/Adr [5]) of 0.51 and a Ratio (K562/Adr [6]) of 0.69. For the same compound, the Ratio (K562/Adr [7]) was 0.15, the viability at 0.1 µM (K562/Adr [8]) was 59.4% and the “fold change (FC)” value (K562/Adr [9]) was 2.396. For the same compound, the Activity (K562/Adr [10]) was “Active”, the Ratio [11] was 0.3 and the Ratio [12] was 0.25. The Ratio (K562/Adr [13]) was 0.1, the Ratio [14] was 0.15 and the Activity (K562/Adr [15]) was “Active”. For the same compound, the Ratio [16] was 0.07, the Ratio [17] was 0.26 and the IC50 [18] was 0.025 µM. For the same compound, the Ratio (K562/Adr [19]) was 0.13, the Ratio [20] was 0.17 and the Ratio (K562/Adr [21]) was 0.42. It also gave a Ratio [22] of 0.58, an Activity (K562/Adr [23]) of 31.44% and a Ratio [24] of 0.35. The Ratio (K562/Adr [25]) was 0.77 and the Ratio [26] was 0.02.
